Experimental data taken from patent publication US20260285850A1, “SUBSTITUTED OXAZOLIDINONES AND IMIDAZOLINONES AS HERBICIDES” (FMC CORPORATION, priority 2023, published 2026).

Tests used:
Format in all cases: in vivo
[1] = system: barnyardgrass (Echinochloa crus-galli); assay: Test A preemergence soil spray, visual injury rating 0-100; details: 10 days
How it was run: (§1)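 Directed preemergence spray onto seeded soil or postemergence spray onto 2-10 cm plants (loam plus sand); compound carried in surfactant-containing non-phytotoxic solvent. Injury rated by eye after 10 d greenhouse growth; 0 = no effect, 100 = complete control.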

[2] = system: blackgrass (Alopecurus myosuroides); assay: as above; details: 10 days
How it was run: as §1

[3] = system: corn (Zea mays); assay: as above; details: 10 days
How it was run: as §1

[4] = system: green foxtail (Setaria viridis); assay: as above; details: 10 days
How it was run: as §1

[5] = system: kochia (Bassia scoparia); assay: as above; details: 10 days
How it was run: as §1

[6] = system: oat, wild (wild oat, Avena fatua); assay: as above; details: 10 days
How it was run: as §1

[7] = system: palmer (palmer amaranth, palmer pigweed, Amaranthus palmeri); assay: as above; details: 10 days
How it was run: as §1

[8] = system: ragweed (common ragweed, Ambrosia artemisiifolia); assay: as above; details: 10 days
How it was run: as §1

[9] = system: ryegrass, Italian (italian ryegrass, Lolium multiflorum); assay: as above; details: 10 days
How it was run: as §1

[10] = system: soybean (Glycine max); assay: as above; details: 10 days
How it was run: as §1

[11] = system: wheat (Triticum aestivum); assay: as above; details: 10 days
How it was run: as §1

[12] = system: barnyardgrass (Echinochloa crus-galli); assay: Test A postemergence application, visual injury rating 0-100
How it was run: as §1

[13] = system: blackgrass (Alopecurus myosuroides); assay: as above
How it was run: as §1

[14] = system: corn (Zea mays); assay: as above
How it was run: as §1

[15] = system: galium (catchweed bedstraw, Galium aparine); assay: as above
How it was run: as §1

[16] = system: green foxtail (Setaria viridis); assay: as above
How it was run: as §1

[17] = system: horseweed (Erigeron canadensis); assay: as above
How it was run: as §1

[18] = system: kochia (Bassia scoparia); assay: as above
How it was run: as §1

[19] = system: oat, wild (wild oat, Avena fatua); assay: as above
How it was run: as §1

[20] = system: palmer (palmer amaranth, palmer pigweed, Amaranthus palmeri); assay: as above
How it was run: as §1

[21] = system: ragweed (common ragweed, Ambrosia artemisiifolia); assay: as above
How it was run: as §1

[22] = system: ryegrass, Italian (italian ryegrass, Lolium multiflorum); assay: as above
How it was run: as §1

[23] = system: soybean (Glycine max); assay: as above
How it was run: as §1

[24] = system: wheat (Triticum aestivum); assay: as above
How it was run: as §1

[25] = system: barnyardgrass (Echinochloa crusgalli); assay: Test B flooded paddy test, visual plant response rating 0-100; details: 250 g ai/ha, Flood, applied to paddy water, evaluated after 13 days
How it was run: (§2)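 2-leaf plants; flood 3 cm over soil; compound dosed into paddy water; depth kept constant; greenhouse 13 d; visual scoring vs controls. Dash = no result.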

[26] = system: ducksalad (Heteranthera limosa); assay: as above; details: 250 g ai/ha, Flood, applied to paddy water, evaluated after 13 days
How it was run: as §2

[27] = system: rice (Oryza sativa); assay: as above; details: 250 g ai/ha, Flood, applied to paddy water, evaluated after 13 days
How it was run: as §2

[28] = system: sedge, umbrella (small-flower umbrella sedge, Cyperus difformis); assay: as above; details: 250 g ai/ha, Flood, applied to paddy water, evaluated after 13 days
How it was run: as §2

[29] = 62 g ai/ha, 0 = no effect, 100 = complete control
[30] = 62 g ai/ha, postemergence, 10 days, 0 = no effect, 100 = complete control
[31] = Postemergence, 16 g ai/ha, greenhouse 10 days, 0 no effect, 100 complete control

COC(=O)C1C=CC(NC(=O)C2(C)CN(c3cc(F)cc(F)c3)C(=O)O2)C1 (stereo not shown) [Compound 89]
Barnyardgrass plant response rating ([1]; 16 g ai/ha, 0 to 100 scale): 70 | Barnyardgrass plant response rating (0-100) [1, 29]: 100 | Blackgrass plant response rating ([2]; 16 g ai/ha, 0 to 100 scale): 30 | Blackgrass plant response rating (0-100) [2, 29]: 70 | Corn plant response rating ([3]; 16 g ai/ha, 0 to 100 scale): 30 | Corn plant response rating (0-100) [3, 29]: 100 | Foxtail, Green plant response rating ([4]; 16 g ai/ha, 0 to 100 scale): 10 | Foxtail, Green plant response rating (0-100) [4, 29]: 100 | Kochia plant response rating ([5]; 16 g ai/ha, 0 to 100 scale): 90 | Kochia plant response rating (0-100) [5, 29]: 100 | Oat, Wild plant response rating ([6]; 16 g ai/ha, 0 to 100 scale): 80 | Oat, Wild plant response rating (0-100) [6, 29]: 90 | Pigweed, Palmer plant response rating ([7]; 16 g ai/ha, 0 to 100 scale): 80 | Pigweed, Palmer plant response rating (0-100) [7, 29]: 100 | Ragweed plant response rating ([8]; 16 g ai/ha, 0 to 100 scale): 0 | Ragweed plant response rating (0-100) [8, 29]: 30 | Ryegrass, Italian plant response rating ([9]; 16 g ai/ha, 0 to 100 scale): 80 | Ryegrass, Italian plant response rating (0-100) [9, 29]: 90 | Soybean plant response rating ([10]; 16 g ai/ha, 0 to 100 scale): 40 | Soybean plant response rating (0-100) [10, 29]: 80 | Wheat plant response rating ([11]; 16 g ai/ha, 0 to 100 scale): 90 | Wheat plant response rating (0-100) [11, 29]: 90 | Barnyardgrass plant response rating (0-100) [12, 30]: 100 | Barnyardgrass plant response rating (0 to 100 scale) [12, 31]: 90 | Blackgrass plant response rating (0-100) [13, 30]: 90 | Blackgrass plant response rating (0 to 100 scale) [13, 31]: 90 | Corn plant response rating (0-100) [14, 30]: 100 | Corn plant response rating (0 to 100 scale) [14, 31]: 90 | Galium plant response rating (0-100) [15, 30]: 100 | Galium plant response rating (0 to 100 scale) [15, 31]: 100 | Foxtail, Green plant response rating (0-100) [16, 30]: 90 | Foxtail, Green plant response rating (0 to 100 scale) [16, 31]: 60 | Horseweed plant response rating (0-100) [17, 30]: 80 | Horseweed plant response rating (0 to 100 scale) [17, 31]: 20 | Kochia plant response rating (0-100) [18, 30]: 90 | Kochia plant response rating (0 to 100 scale) [18, 31]: 80 | Oat, Wild plant response rating (0-100) [19, 30]: 90 | Oat, Wild plant response rating (0 to 100 scale) [19, 31]: 90 | Pigweed, Palmer plant response rating (0-100) [20, 30]: 90 | Pigweed, Palmer plant response rating (0 to 100 scale) [20, 31]: 70 | Ragweed plant response rating (0-100) [21, 30]: 70 | Ragweed plant response rating (0 to 100 scale) [21, 31]: 50 | Ryegrass, Italian plant response rating (0-100) [22, 30]: 90 | Ryegrass, Italian plant response rating (0 to 100 scale) [22, 31]: 90 | Soybean plant response rating (0-100) [23, 30]: 50 | Soybean plant response rating (0 to 100 scale) [23, 31]: 50 | Wheat plant response rating (0-100) [24, 30]: 90 | Wheat plant response rating (0 to 100 scale) [24, 31]: 90 | Plant response rating, Barnyardgrass (0 to 100 scale, 0 is no effect and 100 is complete control) [25]: 95 | Plant response rating, Ducksalad (0 to 100 scale, 0 is no effect and 100 is complete control) [26]: 70 | Plant response rating, Rice (0 to 100 scale, 0 is no effect and 100 is complete control) [27]: 25 | Plant response rating, Sedge, Umbrella (0 to 100 scale, 0 is no effect and 100 is complete control) [28]: 95
